The source of these data is patent publication US7160898B2, “Pharmacological treatment for sleep apnea” (Board of Trustees of The University of Illinois, priority 2002, dated 2007).

Data set [1] relates to 5-hydroxytryptamine receptors. To be noted: anesthetized animals, cited from earlier work; for apnea after intravenous administration: duration increased dose-dependently.
The test system of another data set is sleep apnea syndrome. To be noted: cited from earlier work; for effect in patients with sleep apnea: literature reports.
For data set [2], the system named is animal model of sleep apnea. To be noted: U.S. Pat. No. 5,075,290; cited from earlier work.
For data set [3], the system named is spontaneous sleep-related central apneas. Nature of the data set: Induction and suppression of sleep apneas by serotonin and GR38032F (Example 3). The data set is classed as in vivo, rat (Sprague-Dawley). The conditions noted are these: 6 hour recording. The protocol:
Ten adult male Sprague-Dawley rats (Sasco-King, Wilmington, Mass.; 300 g) were maintained on a 12-h light (08:00–20:00 hour)/12-hour dark (20:00–08:00) cycle for one week, housed in individual cages, and given ad libitum access to food and water. Following the one week of acclimatization, animals were prepared for physiological testing via the surgical procedures (i.e., implantation of cortical electrodes for EEG recording and neck muscle electrodes for EMG recording, implantation of a radiotelemetry transmitter for BP and HP monitoring) as set forth above in Example 1. After completion of the surgical procedures, animals were allowed a one week recovery period prior to use in the present study. Each animal was recorded on four occasions, with recordings for an individual animal separated by at least three days. Fifteen minutes prior to each recording, each animal received (via intraperitoneal injection), in random order, one of the following: (a) saline solution (control); (b) 0.79 mg/kg serotonin; (c) 0.1 mg/kg GR38032F plus 0.79 mg/kg serotonin; or (d) 0.1 mg/kg GR38032F. For the GR38032F+serotonin test group, 0.1 mg/kg GR38032F was administered at time 09:30 followed by 0.79 mg/kg serotonin at time 09:45. Polygraphic recordings were made from 10:00–16:00. Respiration BP, EEG, and EMG data were determined and recorded via the experimental procedure as specifically set forth above in Example 2. As in Example 2, sleep apneas, defined as cessation of respiratory effort for at least 2.5 s, were scored for each recording session and were associated with the stage in which they occurred: NREM or REM sleep. The duration requirement of 2.5 s represents at least two “missed” breaths, which is analogous to a 10-s apnea duration requirement in humans. The effects of sleep stage (NREM vs REM) and injection (control vs. administration of either serotonin alone, GR38032F+serotonin, or GR38032F alone) on apnea indexes, respiratory pattern, BP, and HP were tested using analysis of variance (ANOVA) with repeated measures. Multiple comparisons were controlled using Fisher's protected least-significance difference (PLSD). One-way ANOVA was also performed by nonparametric (Kruskal-Wallis) analysis. Conclusions using parametric and nonparametric ANOVA were identical in all cases.

For the next data set, the system named is sleep/wake architecture. Nature of the data set: Sleep/wake architecture after 5-HT and GR38032F (Example 3). The format is in vivo, rat (Sprague-Dawley). The conditions noted are these: i.p. The method, then:
Sleep and waking states were assessed using the biparietal EEG and nuchal EMG signals on 10-second epochs as described by Bennington et al. [Sleep, 17:28–36 (1994)]. This software discriminated wakefulness (W) as a high frequency low amplitude EEG with a concomitant high EMG tone, NREM sleep by increased spindle and […] activity together with decreased EMG tone, and REM sleep by a […] activity and an absence of EMG tone. Sleep efficiency was measured as the percentage of total recorded epochs staged as NREM or REM sleep.
(§1) Each animal was recorded on four occasions, with recordings for an individual animal separated by at least three days. Fifteen minutes prior to each recording, each animal received (via intraperitoneal injection), in random order, one of the following: (a) saline solution (control); (b) 0.79 mg/kg serotonin; (c) 0.1 mg/kg GR38032F plus 0.79 mg/kg serotonin; or (d) 0.1 mg/kg GR38032F. For the GR38032F+serotonin test group, 0.1 mg/kg GR38032F was administered at time 09:30 followed by 0.79 mg/kg serotonin at time 09:45. Polygraphic recordings were made from 10:00–16:00.
(§2) Respiration BP, EEG, and EMG data were determined and recorded via the experimental procedure as specifically set forth above in Example 2. As in Example 2, sleep apneas, defined as cessation of respiratory effort for at least 2.5 s, were scored for each recording session and were associated with the stage in which they occurred: NREM or REM sleep. The duration requirement of 2.5 s represents at least two “missed” breaths, which is analogous to a 10-s apnea duration requirement in humans.
The effects of sleep stage (NREM vs REM) and injection (control vs. administration of either serotonin alone, GR38032F+serotonin, or GR38032F alone) on apnea indexes, respiratory pattern, BP, and HP were tested using analysis of variance (ANOVA) with repeated measures. Multiple comparisons were controlled using Fisher's protected least-significance difference (PLSD). One-way ANOVA was also performed by nonparametric (Kruskal-Wallis) analysis. Conclusions using parametric and nonparametric ANOVA were identical in all cases.

The next data set concerns RR, VE, mean BP, HP. Nature of the data set: Respiratory pattern, BP and HP after serotonin and GR38032F (Example 3). The data set is classed as in vivo, rat (Sprague-Dawley). The protocol:
Similar software (Experimenters' Workbench; Datawave Technologies, Longmont, Colo.) was employed to analyze the blood pressure waveform; for each beat of each recording, systolic (SBP) and diastolic (DBP) blood pressures and pulse interval were measured. The pulse interval provided a beat by beat estimate of HP. Mean BP (MBP) was estimated according to the weighted average of SBP and DBP for each beat: MBP=DBP+(SBP−DBP)/3. The parameters for each beat were also classified according to the sleep/wake state and recording hour during which they occurred.
as §1, §2
The effects of sleep stage (NREM vs REM) and injection (control vs. administration of either serotonin alone, GR38032F+serotonin, or GR38032F alone) on apnea indexes, respiratory pattern, BP, and HP were tested using analysis of variance (ANOVA) with repeated measures. Multiple comparisons were controlled using Fisher's protected least-significance difference (PLSD). One-way ANOVA was also performed by nonparametric (Kruskal-Wallis) analysis. […]

[4] abbreviates: percent recording time, 6 hours, 5-HT 0.79 mg/kg, GR38032F 0.1 mg/kg, mean ± SE.

Regarding `CC[C@@H](CO)NC(=O)[C@@H]1C=C2c3cccc4c3c(cn4C)C[C@H]2N(C)C1` [methysergide], the “antagonism of agonist-induced transient apnea” value in data set [1] is listed as “significantly antagonized”.

For the compound `N[C@@H](Cc1c[nH]c2ccccc12)C(=O)O` [L-tryptophan], the “effect in patients with sleep apnea” value in the data set with sleep apnea syndrome is “may have a beneficial effect on sleep apnea syndrome”.

On to `C=CCN1CC[C@]23c4c5ccc(O)c4O[C@H]2C(=O)CC[C@@]3(O)[C@H]1C5` [naloxone], for which the “effect in patients with sleep apnea” value in the data set on sleep apnea syndrome is recorded as “only slightly helpful”.

As for `CCN1CC(CCN2CCOCC2)C(c2ccccc2)(c2ccccc2)C1=O` (centres unmarked) [doxapram], in the data set with sleep apnea syndrome, the “effect in patients with sleep apnea” value is reported as “decrease the length of apneas but did not alter the average arterial oxygen saturation”.

`O=C(c1ccc(F)cc1)C1CCN(CCn2c(=O)[nH]c3ccccc3c2=O)CC1` [ketanserine]: the “antagonism of agonist-induced transient apnea” value in data set [1] is reported as “significantly antagonized”.

As to `CC(=O)Nc1nnc(S(N)(=O)=O)s1` [acetazolamide], in the data set with sleep apnea syndrome, the “effect in patients with sleep apnea” value was “variable improvement in individuals with primary central apneas but caused an increase in obstructive apneas”.

`Cn1c(=O)c2[nH]cnc2n(C)c1=O` [theophylline]: the “effect in patients with sleep apnea” value in the data set on sleep apnea syndrome is “may benefit patients with central apnea but appears to be of no use in adult patients with obstructive apnea”.

In the case of `CNCCCC1c2ccccc2C=Cc2ccccc21` [Protriptyline], the “effect in patients with sleep apnea” value in the data set with sleep apnea syndrome was “variable results and frequent and significant side effects”.

In the case of medroxyprogesterone, in the data set on sleep apnea syndrome, the “effect in patients with sleep apnea” value is recorded as “no consistent benefit in OSAS”.

For the compound `Fc1ccc([C@@H]2CCNC[C@H]2COc2ccc3c(c2)OCO3)cc1` [paroxetine], the “effect in patients with sleep apnea” value with sleep apnea syndrome was “benefit some but not all patients with sleep apnea syndrome”.

For `Nc1ncnc2c1ncn2[C@@H]1O[C@H](CO)[C@@H](O)[C@H]1O` [adenosine], the reduction of apnea result in data set [2] is reported as “somewhat effective in reducing apnea”.

With `CC(N)Cc1c[nH]c2ccc(O)cc12` (centres unmarked) [a-methyl-5-hydroxytryptamine], the “apnea after intravenous administration” value in data set [1] is on record as “produced transient apnea”.

Consider `NCCc1c[nH]c2ccc(O)cc12` [serotonin, 5-hydroxytryptamine], for which the “spontaneous apnea index during NREM sleep” value in data set [3] (i.p., serotonin 0.79 mg/kg, GR38032F 0.1 mg/kg) is on record as “not affected by any drug treatment”. For the same compound, in data set [3] (serotonin 0.79 mg/kg i.p.), the “increase of spontaneous apnea expression during REM sleep compared to control” value is recorded as greater than 250%. Also, the “effect on sleep architecture” value in the data set with sleep/wake architecture (6 hours of polygraphic recording) was “had no effect on sleep architecture”. Also, in the data set with sleep/wake architecture (setting [4]), the “% NREM” value was found to be 59.9 ± 3.3%, the “% REM” value is on record as 6.5 ± 1.1% and the “% Wakefulness” value was 30.2 ± 3.2%. Further, the “effect on RR, VE, mean BP, HP, or PS apnea index” value in the data set with RR, VE, mean BP, HP (i.p., serotonin 0.79 mg/kg, GR38032F 0.1 mg/kg, data not shown) was “had no effect on sleep, cardiovascular variables, RR, or VE”. Also, the “beat-to-beat heart rate and BP variability (coefficients of variation)” value with RR, VE, mean BP, HP (serotonin 0.79 mg/kg i.p.) is on record as “unaffected”. Also, the “changes in heart rate or mean BP” value in the data set on RR, VE, mean BP, HP (serotonin 0.79 mg/kg i.p., 6 hour recording period) is “did not elicit changes in either heart rate or mean BP”. Also, in data set [1], the “apnea after intravenous administration” value is given as “produced transient apnea”.

As to `CNCCC(Oc1ccc(C(F)(F)F)cc1)c1ccccc1` (centres unmarked) [fluoxetine], in the data set on sleep apnea syndrome, the “effect in patients with sleep apnea” value is on record as “benefit some but not all patients with sleep apnea syndrome”.

On to `Cc1[nH]c2ccc(O)cc2c1CCN` [2-methyl-5-hydroxytryptamine], for which the “apnea after intravenous administration” value in data set [1] is listed as “produced transient apnea”.

Regarding `O=C1CC2(CCCC2)CC(=O)N1CCCCN1CCN(c2ncccn2)CC1` [buspirone], the “patients with sleep apnea syndrome with reduced apnea index” value with sleep apnea syndrome (Mendelson et al. 1991) is 4 of 5. In addition, the “effect in patients with sleep apnea” value with sleep apnea syndrome is recorded as “eliminate post-surgical apneustic breathing in one child”.
